We go through 13 compounds from PubChem BioAssay (NCI).

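Where inhibition never reached the appropriate level, the endpoint shown equals the highest concentration tested. Otherwise, values were interpolated linearly from a five-concentration, 48-hour dose response in 96-well plates. TGI denotes the concentration required for complete inhibition of growth.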

Test systems include OVCAR-4 ovarian; HOP-62 NSCLC; UO-31 renal; A498 renal; UACC-257 melanoma; SK-MEL-5 melanoma; K-562 leukemia; PC-3 prostate; KM12 colon; SNB-75 CNS.
What all share (assay): NCI anticancer screen, dose series, 48 h

`C[C@H](OC(=O)/C=C/c1ccc(O)c(O)c1)[C@H](C)OC(=O)/C=C/c1ccc(O)c(O)c1`: the TGI in the assay with OVCAR-4 ovarian was more than 100 µM; in the assay with HOP-62 NSCLC, 26.6 µM; in the assay on UO-31 renal it was 21.9 µM; in the assay with A498 renal it was 51.7 µM; in the assay with UACC-257 melanoma, 29.7 µM; in the assay with SK-MEL-5 melanoma it was 21.5 µM. For the same compound, the TGI in the assay on K-562 leukemia was more than 100 µM; in the assay on PC-3 prostate, more than 100 µM; in the assay with KM12 colon, more than 100 µM; in the assay with SNB-75 CNS, 39.3 µM.
For the compound `CCCCCC(=O)OC[n+]1ccc(-c2c(COC(=O)NC(C)C)c(COC(=O)NC(C)C)c3n2CCC3)cc1`, the TGI in the assay on OVCAR-4 ovarian, in the assay on HOP-62 NSCLC, in the assay with UO-31 renal, in the assay with A498 renal, with UACC-257 melanoma and with SK-MEL-5 melanoma was more than 100 µM in each case. Further, the TGI in the assay with K-562 leukemia, in the assay with PC-3 prostate, in the assay with KM12 colon and in the assay with SNB-75 CNS was more than 100 µM each time.
For the compound `O=C1N(c2ccccc2)N=C2c3ccncc3C3=NN(c4ccccc4)C(=O)C123` (stereo not given), the TGI in the assay with OVCAR-4 ovarian was more than 100 µM; in the assay with HOP-62 NSCLC, more than 100 µM; in the assay on UO-31 renal it was more than 100 µM; with A498 renal it was more than 100 µM; in the assay with UACC-257 melanoma, more than 100 µM; in the assay with SK-MEL-5 melanoma, more than 47 µM. Further, the TGI in the assay with K-562 leukemia, in the assay with PC-3 prostate, in the assay on KM12 colon and in the assay on SNB-75 CNS was more than 100 µM each time.
In the case of `COc1ccc(/C=C/C(=O)N[C@@H]2C(=O)N3[C@@H]2SC(C)(C)[C@@H]3C(=O)O)cc1OC`, the TGI in the assay with OVCAR-4 ovarian, in the assay with HOP-62 NSCLC, in the assay with UO-31 renal, in the assay with A498 renal, in the assay with UACC-257 melanoma and with SK-MEL-5 melanoma was more than 100 µM in each case. Besides, the TGI in the assay on K-562 leukemia, in the assay with PC-3 prostate, in the assay on KM12 colon and in the assay with SNB-75 CNS was more than 100 µM throughout.
`CNC(=S)c1nnsc1N`: the TGI in the assay on OVCAR-4 ovarian, with HOP-62 NSCLC, in the assay on UO-31 renal, in the assay with A498 renal, in the assay on UACC-257 melanoma and with SK-MEL-5 melanoma was more than 100 µM throughout. The TGI with K-562 leukemia, with PC-3 prostate, in the assay with KM12 colon and with SNB-75 CNS was more than 100 µM in each case.
Take `COc1ccc(-c2c3c(n(C4OC(COC(C)=O)C(OC(C)=O)C(OC(C)=O)C4OC(C)=O)c(=S)c2C#N)CCCC3)cc1` (stereo not given): the TGI was 98.9 µM with OVCAR-4 ovarian; more than 100 µM with HOP-62 NSCLC; more than 100 µM in the assay with UO-31 renal; 90 µM with A498 renal; more than 100 µM in the assay on UACC-257 melanoma; more than 100 µM in the assay on SK-MEL-5 melanoma. The TGI was more than 100 µM in the assay on K-562 leukemia, 66.7 µM in the assay on PC-3 prostate, more than 100 µM with KM12 colon and 94 µM in the assay with SNB-75 CNS.
For the compound `CCN(CC)CCCNc1c2cc(OC)ccc2nc2cccc([N+](=O)[O-])c12`, the TGI was determined as 0.0779 µM with OVCAR-4 ovarian; 0.412 µM with HOP-62 NSCLC; 0.174 µM with UO-31 renal; 0.0647 µM with A498 renal; 0.416 µM with UACC-257 melanoma; 0.238 µM in the assay with SK-MEL-5 melanoma. For the same compound, the TGI with K-562 leukemia worked out at 0.104 µM; with PC-3 prostate it was 0.224 µM; in the assay with KM12 colon it was 0.347 µM; in the assay with SNB-75 CNS, 0.354 µM.
As to `CCOC(=O)CCNC(=O)c1cc(C)cc2c1Oc1c(cc(C)cc1C(=O)NCCC(=O)OCC)S2`, the TGI with OVCAR-4 ovarian is more than 100 µM; in the assay with HOP-62 NSCLC, more than 100 µM; in the assay on UO-31 renal, more than 100 µM; with A498 renal it was 90.8 µM; with UACC-257 melanoma, more than 100 µM; in the assay on SK-MEL-5 melanoma it was more than 100 µM. The TGI is more than 100 µM in the assay with K-562 leukemia, more than 100 µM in the assay on PC-3 prostate, more than 100 µM with KM12 colon and 78.9 µM in the assay with SNB-75 CNS.
Regarding `O=C(CCCN1CCC(Nc2ccc(F)cc2)(c2nnnn2C2CCCCC2)CC1)c1ccc(F)cc1`, the TGI was 25.5 µM in the assay with OVCAR-4 ovarian; 33.6 µM with HOP-62 NSCLC; 28.4 µM in the assay with UO-31 renal; 12.5 µM in the assay with A498 renal; 57.3 µM with UACC-257 melanoma; 42 µM in the assay with SK-MEL-5 melanoma. For the same compound, the TGI was more than 100 µM with K-562 leukemia, 51.8 µM in the assay on PC-3 prostate, 13.3 µM in the assay on KM12 colon and 24.7 µM in the assay on SNB-75 CNS.
With `Cc1nc2ccccc2n1Cc1ccc(NC(=S)NC2CCCCC2)cc1`, the TGI with OVCAR-4 ovarian is more than 100 µM; with HOP-62 NSCLC it was more than 100 µM; in the assay with UO-31 renal it was more than 100 µM; with A498 renal it was more than 100 µM; with UACC-257 melanoma, more than 95.1 µM; in the assay with SK-MEL-5 melanoma it was more than 51.4 µM. Moreover, the TGI with K-562 leukemia was more than 100 µM; in the assay with PC-3 prostate, more than 100 µM; in the assay with KM12 colon, more than 100 µM; with SNB-75 CNS, more than 84.7 µM.
Turning to `N#C[C@H](c1nc2ccccc2[nH]1)c1nc2ccccc2nc1Cl`, the TGI in the assay with OVCAR-4 ovarian was more than 53.9 µM; with HOP-62 NSCLC it was more than 31.1 µM; with UO-31 renal it was more than 76.7 µM; in the assay on A498 renal, more than 60.6 µM; in the assay with UACC-257 melanoma, more than 62.5 µM; with SK-MEL-5 melanoma, 36 µM. In addition, the TGI was more than 100 µM in the assay with K-562 leukemia, more than 52.1 µM in the assay on PC-3 prostate, 17.1 µM in the assay with KM12 colon and 41.1 µM in the assay on SNB-75 CNS.
For the compound `COc1ccc2oc(=O)c(-c3nc4ccccc4s3)cc2c1`, the TGI in the assay with OVCAR-4 ovarian is 53.6 µM; in the assay on HOP-62 NSCLC, more than 48.1 µM; with UO-31 renal, more than 41.6 µM; in the assay with A498 renal, 54.2 µM; with UACC-257 melanoma, more than 100 µM; with SK-MEL-5 melanoma it was more than 100 µM. Also, the TGI with K-562 leukemia was more than 100 µM; with PC-3 prostate, more than 100 µM; in the assay on KM12 colon it was more than 100 µM; with SNB-75 CNS, 27.5 µM.
`C[C@@H](Br)[C@@H]1CC[C@H]2c3[nH]c4ccccc4c3CCN2C1`: the TGI in the assay on OVCAR-4 ovarian was more than 100 µM; in the assay with HOP-62 NSCLC it was 40.5 µM; with UO-31 renal it was more than 100 µM; in the assay with A498 renal, more than 100 µM; with UACC-257 melanoma, more than 100 µM; in the assay on SK-MEL-5 melanoma, 29.4 µM. Further, the TGI in the assay on K-562 leukemia came to 38.6 µM; in the assay on PC-3 prostate, 75.4 µM; in the assay on KM12 colon, 28.5 µM; in the assay on SNB-75 CNS it was 48.3 µM.
